Measurements as given in patent US9399030B2, “Topically applied circulation enhancing agent and skin and hair cosmetic and bath agent containing the same” (AJINOMOTO CO., INC., priority 2005, dated 2016).
Each block holds one compound with its values, some of them ahead of it.

Key:
conchae of hairless mice = test: Vasodilating effect on the conchae of hairless mice, visual evaluation of red spots (Examples 2 and 4); type: in vivo, hairless mouse (HR-1, female); details: for Vasodilating effect, 1 wt %: 1 wt % in liquid paraffin; for Vasodilating effect, 1 wt % / Vasodilating effect, 5 wt %: symbols not defined in the patent; for Vasodilating effect, 5 wt %: 5 wt % in liquid paraffin; for Activity compared with capsiate: statement in the description; for Remarks: vasodilating effect: in liquid paraffin
Description: The vasodilating effects of capsinoids (a mixed product prepared by the method stated in Reference Example (5) was employed; see below) and capsaicin was compared using the conchae of hairless mice.
Test Method: A sample was applied on the right ear and a control was applied on the left ear of a hairless mouse (HR-1, female), and the development of red spots was visually evaluated.
Sample: (1) Capsinoids (1 weight percent and 5 weight percent dissolved in liquid paraffin)
(2) Capsaicin (1 weight percent and 5 weight percent dispersed in liquid paraffin)
(§1) In the same manner as in Example 2, the vasodilating effects of various capsinoid compounds were compared using the conchae of hairless mice. The samples were dissolved in liquid paraffin.

[1] = Dissolution of the sample in liquid paraffin (Example 4); type: physicochemical
Experimental: as §1

SMILES: COc1cc(CNC(=O)CCCC/C=C/C(C)C)ccc1O [Capsaicin, capsaicin, reference compound]
Remarks: red spots still caused after (conchae of hairless mice; 1 weight percent application): even after two hours
Persistence of red spots (conchae of hairless mice; 1 weight percent dispersed in liquid paraffin): retained their original form even after two hours
Development of red spots (visual evaluation) (conchae of hairless mice; 1 weight percent in liquid paraffin, applied on ear): red spots were observed
Vasodilating effect, 1 wt % (conchae of hairless mice): ◯
Development of red spots (visual evaluation) (conchae of hairless mice; 5 weight percent in liquid paraffin, 30 minutes after application): clear red spots were observed
Vasodilating effect, 5 wt % (conchae of hairless mice): ◯

SMILES: COc1cc(COC(=O)CCCC/C=C/C(C)C)ccc1O [Capsiate, 4-hydoxy-3-methoxybenzyl (E)-8-methyl-6-nonenoate]
Vasodilating effect, 1 wt % (conchae of hairless mice): Δ
Remarks: weak red spots still caused after (conchae of hairless mice; 5 weight percent application): caused even after 90 minutes
Vasodilating effect, 5 wt % (conchae of hairless mice): ◯

SMILES: COc1cc(COC(=O)CCCCCCC(C)C)ccc1O [Dihydrocapsiate, 4-hydroxy-3-methoxybenzyl 8-methylnonanoate]
Vasodilating effect, 1 wt % (conchae of hairless mice): Δ
Remarks: weak red spots still caused after (conchae of hairless mice; 5 weight percent application): caused even after 90 minutes
Vasodilating effect, 5 wt % (conchae of hairless mice): ◯

SMILES: COc1cc(COC(=O)CCCCCC(C)C)ccc1O [Nordihydrocapsiate, nordihydrocapsiate]
Vasodilating effect, 1 wt % (conchae of hairless mice): Δ
Remarks: weak red spots still caused after (conchae of hairless mice; 5 weight percent application): caused even after 90 minutes
Vasodilating effect, 5 wt % (conchae of hairless mice): ◯

SMILES: CCC(C)CCCCC(=O)OCc1ccc(O)c(OC)c1 (centres unmarked) [Vanillyl 6-methyloctanoate, vanillyl 6-methyloctanoate]
Remarks: disappearance of the vasodilating effect (conchae of hairless mice; 5 weight percent application): disappeared in about two hour
Vasodilating effect, 5 wt % (conchae of hairless mice): ◯
Activity compared with capsiate (conchae of hairless mice): about the same degree of activity as capsiate

SMILES: CCC(C)CCCCCC(=O)OCc1ccc(O)c(OC)c1 (centres unmarked) [Vanillyl 7-methylnonanoate, vanillyl 7-methylnonanoate]
Remarks: disappearance of the vasodilating effect (conchae of hairless mice; 5 weight percent application): disappeared in about two hour
Vasodilating effect, 5 wt % (conchae of hairless mice): ◯
Activity compared with capsiate (conchae of hairless mice): about the same degree of activity as capsiate

SMILES: CCC(C)CCCCCCC(=O)OCc1ccc(O)c(OC)c1 (centres unmarked) [Vanillyl 8-methyldecanoate, vanillyl 8-methyldecanoate]
Remarks: disappearance of the vasodilating effect (conchae of hairless mice; 5 weight percent application): disappeared in about two hour
Vasodilating effect, 5 wt % (conchae of hairless mice): ◯
Activity compared with capsiate (conchae of hairless mice): about the same degree of activity as capsiate

SMILES: COc1cc(COC(=O)CCCCCCCC(C)C)ccc1O [Vanillyl 9-methyldecanoate, vanillyl 9-methyldecanoate]
Remarks: disappearance of the vasodilating effect (conchae of hairless mice; 5 weight percent application): disappeared in about two hour
Vasodilating effect, 5 wt % (conchae of hairless mice): ◯
Activity compared with capsiate (conchae of hairless mice): about the same degree of activity as capsiate

SMILES: COc1cc(CO)ccc1O [Vanillyl alcohol, reference compound]
Remarks: vasodilating effect (conchae of hairless mice): No vasodilating effect

SMILES: CCCCCCCCCC(=O)OCc1ccc(O)c(OC)c1 [Vanillyl decanoate, 4-hydroxy-3-methoxybenzyl decanoate (caprate)]
Vasodilating effect, 5 wt % (conchae of hairless mice): ◯
Remarks: disappearance of the vasodilating effect (conchae of hairless mice; concentration not given): Vasodilating effect disappeared in about one hour
Activity compared with capsiate (conchae of hairless mice): about the same degree of activity as capsiate

SMILES: CCCCCCCCCCCC(=O)OCc1ccc(O)c(OC)c1 [Vanillyl dodecanoate]
Remarks: vasodilating effect (conchae of hairless mice): No vasodilating effect

SMILES: CC/C=C\C/C=C\C/C=C\CCCCCCCC(=O)OCc1ccc(O)c(OC)c1 [Vanillyl linolenate]
Remarks: vasodilating effect (conchae of hairless mice): No vasodilating effect

SMILES: CCCCCCCCCCCCCCCCCC(=O)OCc1ccc(O)c(OC)c1 [Vanillyl octadecanoate]
Remarks: vasodilating effect (conchae of hairless mice): No vasodilating effect

SMILES: CCCCCCCC(=O)OCc1ccc(O)c(OC)c1 [Vanillyl octanoate, 4-hycroxy-3-methoxybenzyl octanoate]
Vasodilating effect, 5 wt % (conchae of hairless mice): ◯
Remarks: disappearance of the vasodilating effect (conchae of hairless mice; concentration not given): Vasodilating effect disappeared in about one hour
Activity compared with capsiate (conchae of hairless mice): about the same degree of activity as capsiate

SMILES: CCCCCCCC/C=C\CCCCCCCC(=O)OCc1ccc(O)c(OC)c1 [Vanillyl oleate]
Remarks: vasodilating effect (conchae of hairless mice): No vasodilating effect

Remarks: dissolution in liquid paraffin [1]: Not dissolved
SMILES: CCCCCCCCCCCCCCC(=O)OCc1ccc(O)c(OC)c1 [Vanillyl pentadecanoate]

SMILES: CCCCCCCCCCCCC(=O)OCc1ccc(O)c(OC)c1 [Vanillyl tridecanoate]
Remarks: vasodilating effect (conchae of hairless mice): No vasodilating effect

SMILES: CCCCCCCCCCC(=O)OCc1ccc(O)c(OC)c1 [Vanillyl undecanoate, vanillyl undecanoate]
Vasodilating effect, 5 wt % (conchae of hairless mice): ◯
Remarks: disappearance of the vasodilating effect (conchae of hairless mice; concentration not given): the effect disappeared more quickly than for C10.
Activity compared with capsiate (conchae of hairless mice): about the same degree of activity as capsiate

SMILES: CCCCCCCCC(=O)OCc1ccc(O)c(OC)c1 [vanillyl nonanoate, 4-hydroxy-3-methyloxybenzyl nonanoate]
Activity compared with capsiate (conchae of hairless mice): about the same degree of activity as capsiate
